In publication PMC11784096, “Synthesis, antibacterial evaluation and in silico studies of novel 2-(benzo[d]thiazol-2-yl)-N-arylacetamides and their derivatives as potential DHFR inhibitors” (BMC Chemistry, 2025):
≈ marks a conversion by molar mass, not a printed value.

Tests used:
St. aureus [1] = assay: Agar diffusion method, inhibition zone diameter; format: cell-based, Staphylococcus aureus; settings: Gram-positive
Text: (§1) The bacterial growth inhibition activity of most of the newly synthesized compounds was examined against different Gram-positive and Gram-negative strains. The Agar diffusion method was used to assess the antibacterial and antifungal activity. The Gram-negative strains were: E. coli, K. pneumonia, P. aeruginosa and A. baumannii, the Gram-positive strains were: St. aureus, St. mutans and the standard antibiotics were gentamicin, tigecycline and ampicillin.
(§2) The agar-based media plate surface was inoculated by spreading a volume of the microbial inoculum over the entire agar surface.
(§3) Using a sterile cork borer or a tip, a hole with a diameter of 6 to 8 mm was made.
(§4) Using a micropipette, (20 µL) volume of the antimicrobial agent or extract solution at the desired concentration was introduced into the well.
(§5) The inoculated plates were incubated under suitable conditions depending upon the tested microorganism. The antimicrobial agent diffused through the agar medium and inhibited the growth of the microbial strain tested.
(§6) After a suitable incubation period (16 to 48 hours) according to the optimum growth conditions, the resulting inhibition zone diameters (in mm) around the wells were measured to the nearest whole millimeter at the point at which there is a prominent reduction in growth. If growth is insufficient at the recommended times, the plates should be re-incubated and read later.

K. pneumonia [2] = assay: Agar diffusion method, inhibition zone diameter; format: cell-based, Klebsiella pneumonia; settings: Gram-negative
Text: as §1, §2, §3, §4, §5, §6

K. pneumonia [3] = assay: Minimum inhibition concentration, serial dilution; format: cell-based, Klebsiella pneumonia; settings: 37 °C; for MIC: Klebsiella pneumoniae
Method: (§7) For each strain, three to five isolated colonies were selected from the fresh agar plate and transferred into a tube containing 3-4 ml of the sterile broth medium. The bacterial suspension was mixed well and incubated at 35-37 °C for 2-6 hours. […] After that, 1 mg of the tested compound (antimicrobial agent) was dissolved in 1 ml of DMSO and a two-fold serial dilution was done using a broth medium. A fixed volume of the prepared bacterial inoculum was added to each tube and incubated at 37 °C for 16-20 hours. The MIC is defined as the lowest concentration of the antimicrobial agent that inhibits visible growth of the tested isolate as observed with the unaided eye.

P. aeruginosa [4] = assay: Agar diffusion method, inhibition zone diameter; format: cell-based, Pseudomonas aeruginosa; settings: Gram-negative
Text: as §1, §2, §3, §4, §5, §6

E. coli [5] = assay: Agar diffusion method, inhibition zone diameter; format: cell-based, Escherichia coli; settings: Gram-negative
Text: as §1, §2, §3, §4, §5, §6

E. coli [6] = assay: Minimum inhibition concentration, serial dilution; format: cell-based, Escherichia coli; settings: 37 °C; for MIC: Escherichia coli
Method: as §7

A. baumannii [7] = assay: Agar diffusion method, inhibition zone diameter; format: cell-based, Acinetobacter baumannii; settings: Gram-negative
Text: as §1, §2, §3, §4, §5, §6

P. aeruginosa [8] = assay: Minimum inhibition concentration, serial dilution; format: cell-based, Pseudomonas aeruginosa; settings: 37 °C; for MIC: Pseudomonas aeruginosa
Method: as §7

A. baumannii [9] = assay: Minimum inhibition concentration, serial dilution; format: cell-based, Acinetobacter baumannii; settings: 37 °C; for MIC: Acinetobacter baumannii
Method: as §7

St. mutans = assay: Agar diffusion method, inhibition zone diameter; format: cell-based; settings: Gram-positive
Text: as §1, §2, §3, §4, §5, §6

St. aureus [10] = assay: Minimum inhibition concentration, serial dilution; format: cell-based; settings: Staphylococcus aureus, 37 °C
Method: as §7

[11] = biological target: dihydrofolate reductase in Escherichia coli (Escherichia coli, UniProt P0ABQ4); assay: In vitro DHFR inhibition assessment; format: biochemical
Chain of dihydrofolate reductase in Escherichia coli (P0ABQ4 whole entry): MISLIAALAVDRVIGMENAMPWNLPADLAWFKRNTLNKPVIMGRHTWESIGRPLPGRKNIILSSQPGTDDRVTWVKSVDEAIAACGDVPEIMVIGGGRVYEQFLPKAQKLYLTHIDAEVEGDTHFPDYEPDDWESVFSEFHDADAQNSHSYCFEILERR

Row | MIC (K. pneumonia [3]) [µg/mL] | MIC (E. coli [6]) [µg/mL] | Compound | IZD St. aureus (St. aureus [1]) [mm] | IZD K. pneumonia (K. pneumonia [2]) [mm] | IZD P. aeruginosa (P. aeruginosa [4]) | IZD E. coli (E. coli [5]) [mm] | IZD A. baumannii (A. baumannii [7]) [mm] | other results
1 |  |  | 4-(2-(Benzo[d]thiazol-2-yl)acetamido)benzoic acid [2e] | 20 ± 1 | 36 ± 1 | 36 ± 1 mm | 35 ± 1 | 36 ± 1 | MIC K. pneumonia (K. pneumonia [3]): 0.03125 µg/mL; MIC E. coli (E. coli [6]): 0.03125 µg/mL; MIC P. aeruginosa (P. aeruginosa [8]): 0.03125 µg/mL; MIC A. baumannii (A. baumannii [9]): 0.125 µg/mL
2 |  |  | O=C(Nc1ccccc1)C(=Cc1ccccc1)c1nc2ccccc2s1 [4a, 2-(Benzo[d]thiazol-2-yl)-N,3-diphenylacrylamide] |  |  |  | 11 ± 1 |  | 
3 |  |  | COc1ccc(C=C(C(=O)Nc2ccccc2)c2nc3ccccc3s2)cc1 [4b, 2-(Benzo[d]thiazol-2-yl)-3-(4-methoxyphenyl)-N-phenylacrylamide] |  |  |  |  | 13 ± 1 | 
4 | 0.125 (≈ 0.32 µM) | 0.125 (≈ 0.32 µM) | O=C(Nc1ccccc1)C(=Cc1ccc(Cl)cc1)c1nc2ccccc2s1 [4d, 2-(Benzo[d]thiazol-2-yl)-3-(4-chlorophenyl)-N-phenylacrylamide] |  | 20 ± 1 | no activity | 20 ± 1 | 15 ± 1 | MIC (A. baumannii [9]): 0.25 µg/mL (≈ 0.64 µM)
5 | 0.0312 (≈ 0.078 µM) | 0.0625 (≈ 0.156 µM) | COc1ccc(C=C(C(=O)Nc2ccc(C)cc2)c2nc3ccccc3s2)cc1 [4f, 2-(Benzo[d]thiazol-2-yl)-3-(4-methoxyphenyl)-N-(p-tolyl)acrylamide] | 25 ± 1.1 | 25 ± 1.1 | 20 ± 1 mm | 25 ± 1.1 | 15 ± 1.1 | MIC K. pneumonia (K. pneumonia [3]): 0.0625 µg/mL (≈ 0.156 µM); IZD St. mutans (St. mutans): 18 ± 1.1 mm; MIC (P. aeruginosa [8]): 0.125 µg/mL (≈ 0.312 µM)
6 |  |  | COc1ccc(C=C(C(=O)Nc2ccc(C)cc2)c2nc3ccccc3s2)cc1OC [4g, 2-(Benzo[d]thiazol-2-yl)-3-(3,4-dimethoxyphenyl)-N-(p-tolyl)acrylamide] |  |  |  | 18 ± 1 |  | 
7 | 0.125 (≈ 0.32 µM) | 0.125 (≈ 0.32 µM) | O=C(Nc1ccc(Cl)cc1)C(=Cc1ccccc1)c1nc2ccccc2s1 [4i, 2-(Benzo[d]thiazol-2-yl)-N-(4-chlorophenyl)-3-phenylacrylamide] | 12 ± 1 | 23 ± 1 | no activity | 20 ± 1 | 15 ± 1 | 
8 | 0.0625 (≈ 0.139 µM) | 0.125 (≈ 0.277 µM) | COc1ccc(C=C(C(=O)Nc2ccc(Cl)cc2)c2nc3ccccc3s2)cc1OC [4k, 2-(Benzo[d]thiazol-2-yl)-N-(4-chlorophenyl)-3-(3,4-dimethoxyphenyl)acrylamide] | 25 ± 1.1 | 25 ± 1.1 | 20 ± 1 mm | 22 ± 1.1 | 23 ± 1.1 | IZD St. mutans (St. mutans): 18 ± 1.1 mm; MIC (St. aureus [10]): 0.0625 µg/mL (≈ 0.139 µM); MIC (P. aeruginosa [8]): 0.125 µg/mL (≈ 0.277 µM); MIC (A. baumannii [9]): 0.0312 µg/mL (≈ 0.0693 µM)
9 |  |  | O=C(Nc1ccc(Cl)cc1)C(=Cc1ccc(OC(=O)c2ccccc2)cc1)c1nc2ccccc2s1 [4o, 4-(2-(Benzo[d]thiazol-2-yl)-3-((4-chlorophenyl)amino)-3-oxoprop-1-en-1-yl)phenyl-benzoate] |  | 13 ± 1 |  |  | 10 ± 1 | 
10 | 0.0625 (≈ 0.125 µM) | 0.0625 (≈ 0.125 µM) | O=C(Nc1ccccc1)C(=Cc1cn(-c2ccccc2)nc1-c1ccccc1)c1nc2ccccc2s1 [6a, 2-(Benzo[d]thiazol-2-yl)-3-(1,3-diphenyl-1H-pyrazol-4-yl)-N-phenylacrylamide] |  | 20 ± 1 | 23 ± 1 mm | 20 ± 1 |  | MIC (P. aeruginosa [8]): 0.125 µg/mL (≈ 0.251 µM)
11 |  |  | Cc1ccc(-c2nn(-c3ccccc3)cc2C=C(C(=O)Nc2ccccc2)c2nc3ccccc3s2)cc1 [6b, 2-(Benzo[d]thiazol-2-yl)-N-phenyl-3-(1-phenyl-3-(p-tolyl)-1H-pyrazol-4-yl)acrylamide] |  | 13 ± 1 |  |  | 10 ± 1 | 
12 |  |  | O=C(Nc1ccccc1)C(=Cc1cn(-c2ccccc2)nc1-c1ccc(Cl)cc1)c1nc2ccccc2s1 [6c, 2-(Benzo[d]thiazol-2-yl)-3-(3-(4-chlorophenyl)-1-phenyl-1H-pyrazol-4-yl)-N-phenyl-acrylamide] |  |  |  |  | 13 ± 1 | 
13 |  |  | Cc1ccc(NC(=O)C(=Cc2cn(-c3ccccc3)nc2-c2ccccc2)c2nc3ccccc3s2)cc1 [6d, 2-(Benzo[d]thiazol-2-yl)-3-(1,3-diphenyl-1H-pyrazol-4-yl)-N-(p-tolyl)acrylamide] |  | 13 ± 1 |  |  | 10 ± 1 | 
14 |  |  | Cc1ccc(NC(=O)C(=Cc2cn(-c3ccccc3)nc2-c2ccc(C)cc2)c2nc3ccccc3s2)cc1 [6e, 2-(Benzo[d]thiazol-2-yl)-3-(1-phenyl-3-(p-tolyl)-1H-pyrazol-4-yl)-N-(p-tolyl)acrylamide] | 29 ± 0.5 | 36 ± 0.8 |  | 31 ± 1 |  | 
15 |  |  | Cc1ccc(-c2nn(-c3ccccc3)cc2C=C(C(=O)Nc2ccc(Cl)cc2)c2nc3ccccc3s2)cc1 [6h, 2-(Benzo[d]thiazol-2-yl)-N-(4-chlorophenyl)-3-(1-phenyl-3-(p-tolyl)-1H-pyrazol-4-yl)acrylamide] |  |  |  |  | 13 ± 1 | 
16 |  |  | O=C(Nc1ccc(Cl)cc1)/C(=C\c1cn(-c2ccccc2)nc1-c1ccc(Cl)cc1)c1nc2ccccc2s1 [6i] | 14 ± 1 |  |  | 18 ± 0.5 | 19 ± 0.5 | IZD St. mutans (St. mutans): 15 ± 1 mm
17 |  |  | N#Cc1c(-c2ccccc2)c(-c2nc3ccccc3s2)c(=O)n(-c2ccccc2)c1N [11a, 2-Amino-5-(benzo[d]thiazol-2-yl)-6-oxo-1,4-diphenyl-1,6-dihydropyridine-3-carbonitrile] | 14 ± 1 |  |  | 18 ± 0.5 | 19 ± 0.5 | IZD St. mutans (St. mutans): 15 ± 1 mm
18 |  |  | COc1ccc(-c2c(C#N)c(N)n(-c3ccccc3)c(=O)c2-c2nc3ccccc3s2)cc1 [11b, 2-Amino-5-(benzo[d]thiazol-2-yl)-4-(4-methoxyphenyl)-6-oxo-1-phenyl-1,6-dihydro-pyridine-3-carbonitrile] |  |  |  | 19 ± 1 | 15 ± 1 | 
19 | 0.0625 (≈ 0.135 µM) | 0.0315 (≈ 0.0678 µM) | COc1ccc(-c2c(C#N)c(N)n(-c3ccc(C)cc3)c(=O)c2-c2nc3ccccc3s2)cc1 [11d, 2-Amino-5-(benzo[d]thiazol-2-yl)-4-(4-methoxyphenyl)-6-oxo-1-(p-tolyl)-1,6-dihydro-pyridine-3-carbonitrile] |  | 23 ± 1 | 13 ± 1 mm | 35 ± 1 | 10 ± 1 | 
20 |  |  | COc1ccc(-c2c(C#N)c(N)n(-c3ccc(Cl)cc3)c(=O)c2-c2nc3ccccc3s2)cc1 [11f, 2-Amino-5-(benzo[d]thiazol-2-yl)-1-(4-chlorophenyl)-4-(4-methoxyphenyl)-6-oxo-1,6-dihydropyridine-3-carbonitrile] | 20 ± 1.1 | 20 ± 1.1 | 16 ± 1 mm | 17 ± 1.1 | 15 ± 1.1 | IZD St. mutans (St. mutans): 20 ± 1.1 mm
21 | 0.0625 (≈ 0.131 µM) | 0.0312 (≈ 0.0654 µM) | CNC(C)C1CCC(N)C(OC2C(N)CC(N)C(OC3OCC(C)(O)C(NC)C3O)C2O)O1 (stereo not drawn) [Gentamicin, reference compound] |  | 29 ± 0.5 | 32 ± 0.4 mm | 27 ± 0.1 |  | MIC (P. aeruginosa [8]): 0.0312 µg/mL (≈ 0.0654 µM); MIC (A. baumannii [9]): 0.0312 µg/mL (≈ 0.0654 µM)
22 |  |  | CN(C)c1cc(NC(=O)CNC(C)(C)C)c(O)c2c1C[C@H]1C[C@H]3[C@H](N(C)C)C(O)=C(C(N)=O)C(=O)[C@@]3(O)C(O)=C1C2=O [Tigecycline, reference compound] |  |  |  |  | 23 ± 0.4 | MIC (A. baumannii [9]): 0.0312 µg/mL (≈ 0.0534 µM)

Row | Compound | MIC (K. pneumonia [3]) [µg/mL] | MIC (E. coli [6]) [µg/mL] | IZD St. aureus (St. aureus [1]) [mm] | IZD K. pneumonia (K. pneumonia [2]) [mm] | IZD P. aeruginosa (P. aeruginosa [4]) | IZD E. coli (E. coli [5]) [mm] | IZD A. baumannii (A. baumannii [7]) [mm] | other results
23 | Cc1ccc(-n2c(N)c(C#N)c(-c3ccccc3)c(-c3nc4ccccc4s3)c2=O)cc1 [11c, 2-Amino-5-(benzo[d]thiazol-2-yl)-6-oxo-4-phenyl-1-(p-tolyl)-1,6-dihydropyridine-3-carbonitrile] | 0.0315 (≈ 0.0725 µM) | 0.0315 (≈ 0.0725 µM) |  | 36 ± 1 | 35 ± 1 mm | 35 ± 1 | 35 ± 1 | IC50 [11]: 15 ± 0.785 µM; inhibitory activity against DHFR relative to trimethoprim ([11]; fold of trimethoprim, in words): half; MIC (P. aeruginosa [8]): 0.0315 µg/mL (≈ 0.0725 µM); MIC (A. baumannii [9]): 0.0315 µg/mL (≈ 0.0725 µM)
